Data as given in patent US12721816B2, “Polymer-encapsulated drug particles” (Tonic Medical, Inc., priority 2020, dated 2026).

Legend:
[1] = stability under ethylene oxide sterilization, heating, and aging with paclitaxel; settings: formulated with paclitaxel
[2] = urethral stricture patients; 1 hour, 3 hours, 5 hours, 10 hours, 24 hours, and 5 days
Protocol: Clinical subjects were evaluated at 14, 30, 90, 180, 365 days, and 2 years after the index procedure. Evaluations included analysis of stricture free rate, uroflowmetry including Qmax, and PVR.

[3] = BSA added; cited from earlier work
albumin = albumin (Homo sapiens, UniProt P02768); settings: cited from earlier work
Chain of albumin (P02768 25-609): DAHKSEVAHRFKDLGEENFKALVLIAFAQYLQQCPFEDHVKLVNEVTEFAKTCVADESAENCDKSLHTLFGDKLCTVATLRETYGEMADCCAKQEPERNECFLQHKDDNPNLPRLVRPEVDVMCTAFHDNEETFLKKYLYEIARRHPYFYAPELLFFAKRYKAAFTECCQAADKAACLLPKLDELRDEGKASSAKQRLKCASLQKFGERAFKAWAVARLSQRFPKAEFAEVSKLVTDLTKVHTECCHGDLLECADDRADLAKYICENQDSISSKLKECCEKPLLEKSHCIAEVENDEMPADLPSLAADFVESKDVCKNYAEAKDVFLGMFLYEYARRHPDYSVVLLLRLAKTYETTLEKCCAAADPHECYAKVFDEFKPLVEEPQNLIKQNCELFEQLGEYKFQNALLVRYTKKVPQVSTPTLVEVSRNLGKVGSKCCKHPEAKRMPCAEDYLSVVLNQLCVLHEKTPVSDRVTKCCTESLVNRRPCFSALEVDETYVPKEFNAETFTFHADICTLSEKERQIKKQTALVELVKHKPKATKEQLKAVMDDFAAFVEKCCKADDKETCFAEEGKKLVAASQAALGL

SMILES: O=C(O)c1ccccc1 [benzoic acid]
- stability under ethylene oxide sterilization, heating, and aging process [1]: not stable

SMILES: CC(=O)O[C@H]1C(=O)[C@@]2(C)[C@H]([C@H](OC(=O)c3ccccc3)[C@]3(O)C[C@H](OC(=O)[C@H](O)[C@@H](NC(=O)c4ccccc4)c4ccccc4)C(C)=C1C3(C)C)[C@]1(OC(C)=O)CO[C@@H]1C[C@@H]2O [paclitaxel]
- Human plasma paclitaxel concentration on average [2]: below the level of quantification
- solubility increase in PBS with the addition of BSA [3]: over 20 fold

SMILES: CO[C@H]1C[C@@H]2CC[C@@H](C)[C@@](O)(O2)C(=O)C(=O)N2CCCC[C@H]2C(=O)O[C@H]([C@H](C)C[C@@H]2CC[C@@H](O)[C@H](OC)C2)CC(=O)[C@H](C)/C=C(\C)[C@@H](O)[C@@H](OC)C(=O)[C@H](C)C[C@H](C)/C=C/C=C/C=C/1C [sirolimus]
- share of protein binding to albumin (albumin; bound primarily to albumin): 97%
- protein bound (albumin): 92%
